Test [1] has as its target T1, human galectin-1 (Homo sapiens, UniProt P09382).
T1 construct: human galectin-1 (residues M1-D135); His-tag; made in house; host or cells: E. coli BL21
The test is described as follows: Fluorescence polarization (FP) binding assay, galectin-1. Particulars: human vs mouse galectin-1. As for the experimental part: (§1) For SPR studies, His-tagged proteins were expressed in E. coli strain BL21 (human galectin-1 (residues M1-D135) and mouse galectin-1 (residues M1-E135)) and purified as previously described. SDS-PAGE and mass spectrometry were used to confirm protein purity with all proteins stored at −80 °C until use. Human and mouse proteins for FP were produced as previously described.

Test [2] concerns the target T1, human galectin-1. The test is described as follows: SPR binding assay, human galectin-1. Here is the method: as §1
(§2) The SPR method previously described for galectin-3 proteins was used here for galectin-1 [10]. Briefly, CM3 sensor chip surfaces (Cytiva, Marlborough, MA, USA) were pre-primed and equilibrated in immobilization buffer (10 mM HEPES, 150 mM NaCl (pH 7.4)) using an Amine Coupling Kit (Cytiva, Marlborough, MA, USA) prior to the immobilization of protein (injected at 10 µg/mL in PBS at pH 6.0). […] Chips surfaces were blocked with ethanolamine HCl (pH 8.5) for 420 s upon reaching the immobilization required. Then, EDC/NHS and ethanolamine were used to treat blank surfaces that were protein-free. Running buffer (RB) was used to dilute compounds (10 mM HEPES, 150 mM NaCl, 1 mM DTT, 0.05% Tween 20, 5% DMSO (pH 7.4)), pre-filtered, degassed, and then injected for 1 min at a flow rate of 30 μL/min. […] Following each cycle, the chip surface was auto-regenerated and aided by fast compound off-rates, and a further wash set was completed in RB. […]

A further test has as its target T2, mouse galectin-1 (Mus musculus, UniProt P16045).
T2 construct: mouse galectin-1 (residues M1-E135); His-tag; made in house; host or cells: E. coli BL21
Nature of the test: SPR binding assay, mouse galectin-1. Here is the method: as §1, §2

pKd: −log10 of the molar value.

T1 sequence (P09382 whole entry, the tested form may be a part): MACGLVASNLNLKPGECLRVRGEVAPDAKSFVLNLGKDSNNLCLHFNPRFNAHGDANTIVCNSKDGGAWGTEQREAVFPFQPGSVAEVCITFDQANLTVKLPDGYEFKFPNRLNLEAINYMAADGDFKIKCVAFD
T2 sequence (P16045 whole entry, the tested form may be a part): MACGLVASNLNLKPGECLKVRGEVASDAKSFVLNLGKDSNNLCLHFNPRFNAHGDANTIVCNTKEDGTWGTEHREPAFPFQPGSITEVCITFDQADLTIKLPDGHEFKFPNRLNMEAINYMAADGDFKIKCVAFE

Regarding `OC[C@H]1O[C@H](Sc2cc(Cl)c(F)c(Cl)c2)[C@H](O)[C@@H](n2cc(-c3nccs3)nn2)[C@H]1O` [Compound 4, GB1490], the “Fold KD Differences FP Human vs. Mouse Gal-1” value at human galectin-1 [1] was found to be 0.6 fold. The “Fold KD Differences SPR Human vs. Mouse Gal-1” value on human galectin-1 [2] (SPR assay, human vs mouse galectin-1) worked out at 0.6 fold. For the same compound, at human galectin-1 [2] (human galectin-1, FP vs SPR assay format), the “Fold KD Differences Human Gal-1 FP vs. SPR” value amounted to 1.8 fold. The “Fold KD Differences Mouse Gal-1 FP vs. SPR” value at mouse galectin-1 (FP vs SPR assay format) is given as 1.6 fold.
For the compound `OC[C@H]1O[C@@H](S[C@@H]2O[C@H](CO)[C@H](O)[C@H](n3cc(-c4cccc(F)c4)nn3)[C@H]2O)[C@H](O)[C@@H](n2cc(-c3cccc(F)c3)nn2)[C@H]1O` [Compound 1, GB0139], the pKd at mouse galectin-1 (koff/kon, 1:1 Langmuir model, 25 °C, read-out: kinetic KD in SPR) was 6.88.

The values above are taken from publication PMC11203799, “Determining the Affinity and Kinetics of Small Molecule Inhibitors of Galectin-1 Using Surface Plasmon Resonance” (International Journal of Molecular Sciences, 2024).
